Experimental data reported in patent US8648086B2, “5,6-bicyclic heteroaryl-containing urea compounds as kinase inhibitors” (Ascepion Pharmaceuticals, Inc., priority 2009, dated 2014).
Counter-ions that a name gives are not always drawn.

How the values were obtained:
[1] = biological target: T1, c-Met (Homo sapiens, UniProt P08581); test: c-Met cell-based assay (phospho-c-Met ELISA, A549 cells); details: compound at 100 nM
T1 construct: endogenous in cells; host or cells: A549 cells
Summary of the method: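 Serum-starved A549 cells (NSCLC) pretreated 2 h with compound (0.5 nM to 500 nM), then stimulated 20 min with 20% FBS. Lysates analysed by ELISA for phospho-c-Met and total c-Met with streptavidin-HRP chemiluminescence.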

[2] = biological target: T2, VEGFR2 (Homo sapiens, UniProt P35968); test: VEGFR2 cell-based assay (phospho-VEGFR2 ELISA, transfected CHO cells); details: compound at 100 nM, read-out: % VEGFR2 kinase activity remains
T2 construct: expressed in transfected cells; host or cells: CHO cells, pcDNA3.1 plasmid
Summary of the method: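 Serum-starved CHO cells transfected with full-length VEGFR2 treated 2 h with compound (0.5–500 nM), then stimulated with 20% FBS. Lysates analyzed by ELISA for phospho- and total VEGFR2 using streptavidin-HRP chemiluminescence.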

[3] = biological target: T3, CSF-1R (Homo sapiens, UniProt P07333); test: KINOMEscan competition binding assay, CSF-1R; details: compound at 100 nM; lower number indicates stronger hit
T3 construct: purchased KINOMEscan service (Ambit Biosciences, San Diego)
Procedure: (§1) A standard competition binding assay can be used to test the ability of a compound of this invention on competing with both intended and unintended kinases in vitro. To screen a compound against a large number of human kinases, a competition binding assay with an active-site dependent binding technology was performed by KINOMEscan service (Ambit Biosciences, San Diego, Cal., USA). Three components were combined in this assay—DNA-tagged kinase, immobilized ligand, and the test compound. The ability of the test compound to compete with the immobilized ligand was measured by quantitative PCR of the DNA of the DNA tag. A number of the compounds of this invention were screened at the concentration of 100 nM by this binding assay, and the results were reported as “% Ctrl,” and the lower number indicates stronger “hit” in this matrix.

[4] = biological target: T4, c-Kit (Homo sapiens, UniProt P10721); test: KINOMEscan competition binding assay, c-Kit; details: compound at 100 nM; lower number indicates stronger hit
T4 construct: purchased KINOMEscan service (Ambit Biosciences, San Diego)
Procedure: as §1

[5] = system: MKN-45 human gastric cancer cells; test: In vivo anti-tumor efficacy, MKN-45 xenograft; details: Gastric cancer MKN-45, nu/nu Balb/c mice, 100 mg/kg oral once per day, n = 2 × 3
Procedure: (§2) Female (nu/nu) Balb/c athymic mice at 4-6 weeks of age were injected subcutaneously (s.c.) with MDA-MB-231 human breast cancer cells, A549 human non-small cell lung cancer cells, U87-MG human glioblastoma cells, PC-3 human prostate cancer cells, HT-29 human colon cancer, BEL-7404 human hepatocellular carcinoma, or MKN-45 human gastric cancer cells (ATCC, 5×10^6 cells suspended in 100 μl DMEM medium). Treatment was initiated after the tumor mass grown from s.c. implanted tumor cells reached a median volume of 200-400 mm^3. Mice were randomized into groups with three in each group for small-sample efficacy tests such that the median tumor volume is nearly equal among all groups. For large-sample efficacy tests, mice were randomized into groups with thirteen or fourteen in each group. Each group was treated either with compounds (dissolved in 2:1 mixture of PEG400 and 0.01N HCl (v/v)) or without compounds (vehicle only, 2:1 mixture of PEG400 and 0.01N HCl (v/v)) once per day at dose 12.5, 25, 50 or 100 mg/kg by oral gavage. Tumor volumes were assessed at least twice weekly by caliper measurement from the start of treatment. Tumor volume was calculated using the formula ½×L×W^2 (L: length of tumor's long axis, W: length of tumor's short axis). Treatment was applied for at least two weeks or until the tumor volume reaches a size of ˜2500 mm^3 or greater. Mice were humanly sacrificed after the experiment. The efficacy of compounds in reducing tumor growth was assessed by the index Tumor Growth Inhibition (TGI). TGI for a given treatment period was calculated using the group mean tumor volumes according to the formula: TGI=100×(VVehicle—group−VTreatment—group)÷VVehicle—group wherein VVehicle—group represents the mean tumor volume for the group treated with vehicle and VTreatment—group represents the mean tumor volume of the group treated with a compound.

[6] = system: MDA-MB-231 human breast cancer cells; test: In vivo anti-tumor efficacy, MDA-MB-231 xenograft; details: Breast cancer MDA-MB-231, nu/nu Balb/c mice, 100 mg/kg oral once per day, n = 2 × 3
Procedure: as §2, with “experiment.” for “experiment. The efficacy of compounds in reducing tumor growth was assessed by the index Tumor Growth Inhibition (TGI). TGI for a given treatment period was calculated using the group mean tumor volumes according to the formula: TGI=100×(VVehicle—group−VTreatment—group)÷VVehicle—group wherein VVehicle—group represents the mean tumor volume for the group treated with vehicle and VTreatment—group represents the mean tumor volume of the group treated with a compound.”
(§3) The efficacy of compounds in reducing tumor growth was assessed by the index Tumor Growth Inhibition (TGI). TGI for a given treatment period was calculated using the group mean tumor volumes according to the formula: TGI=100×(VVehicle—group−VTreatment—group)÷VVehicle—group wherein VVehicle—group represents the mean tumor volume for the group treated with vehicle and VTreatment—group represents the mean tumor volume of the group treated with a compound.

[7] = system: PC-3 human prostate cancer cells; test: In vivo anti-tumor efficacy, PC-3 xenograft; details: Prostate cancer PC-3, nu/nu Balb/c mice, n = 2 × 3
Procedure: as §2

[8] = biological target: T5, EPHA2 (Homo sapiens, UniProt P29317); test: KINOMEscan competition binding assay, EPHA2; details: compound at 100 nM; lower number indicates stronger hit
T5 construct: purchased KINOMEscan service (Ambit Biosciences, San Diego)
Procedure: as §1

[9] = system: A549 human non-small cell lung cancer cells; test: In vivo anti-tumor efficacy, A549 xenograft; details: Non-small cell lung cancer A549, nu/nu Balb/c mice, n = 2 × 3
Procedure: as §2

[10] = system: U87-MG human glioblastoma cells; test: In vivo anti-tumor efficacy, U87-MG xenograft; details: nu/nu Balb/c mice, 100 mg/kg oral once per day, n = 2 × 3
Procedure: as §2, with “For large-sample efficacy tests, mice were randomized into groups with thirteen or fourteen in each group. Each group was treated either with compounds (dissolved in 2:1 mixture of PEG400 and 0.01N HCl (v/v)) or without compounds (vehicle only, 2:1 mixture of PEG400 and 0.01N HCl (v/v)) once per day at dose 12.5, 25, 50 or 100 mg/kg by oral gavage.” left out, “Treatment was applied for at least two weeks or until the tumor volume reaches a size of ˜2500 mm^3 or greater. Mice were humanly sacrificed after the experiment.” left out

[11] = system: BEL-7404 human hepatocellular carcinoma; test: In vivo anti-tumor efficacy, BEL-7404 xenograft; details: Liver cancer BEL-7404, nu/nu Balb/c mice, 50 mg/kg oral once per day, n = 2 × 3
Procedure: Female (nu/nu) Balb/c athymic mice at 4-6 weeks of age were injected subcutaneously (s.c.) with MDA-MB-231 human breast cancer cells, A549 human non-small cell lung cancer cells, U87-MG human glioblastoma cells, PC-3 human prostate cancer cells, HT-29 human colon cancer, BEL-7404 human hepatocellular carcinoma, or MKN-45 human gastric cancer cells (ATCC, 5×10^6 cells suspended in 100 μl DMEM medium). Treatment was initiated after the tumor mass grown from s.c. implanted tumor cells reached a median volume of 200-400 mm^3. Mice were randomized into groups with three in each group for small-sample efficacy tests such that the median tumor volume is nearly equal among all groups. […] Tumor volumes were assessed at least twice weekly by caliper measurement from the start of treatment. Tumor volume was calculated using the formula ½×L×W^2 (L: length of tumor's long axis, W: length of tumor's short axis). […]
as §3

[12] = system: HT-1299; test: In vivo anti-tumor efficacy, HT-1299 lung cancer xenograft; details: Lung cancer HT-1299, nu/nu Balb/c mice, 100 mg/kg oral once per day, n = 2 × 3
[13] = biological target: T6, PDGFRβ (Homo sapiens, UniProt P09619); test: PDGFRβ cell-based assay (phospho-PDGFRβ ELISA, transfected CHO cells); details: compound at 100 nM, read-out: % PDGFRβ kinase activity remains
T6 construct: expressed in transfected cells; host or cells: CHO cells, pcDNA3.1 plasmid
Procedure: A standard cell-based assay for PDGFRβ kinase activity can be used to test a compound of this invention and to identify PDGFRβ antagonists.
Specifically, a compound to be tested was first dissolved in DMSO to a concentration of 10 mM and stored at −20° C. The activity of PDGFRβ in cells depends on the phosphorylation level of its intracellular domain induced by the ligand. In order to express PDGFRβ in the cell, full length PDGFRβ sequence was cloned into PC-DNA3.1 vector. The plasmid was then transfected into CHO cells. After 48 hours following the transfection, the expression of PDGFRβ in transfected CHO cells was confirmed by regular western blotting.
To screen the compound of this invention, the ELISA kit (R&D Systems, Minneapolis, Minn., USA) was used. One day before the screening, CHO cells transfected with full length PDGFRβ plasmid were grown in DMEM medium without the presence of serum. On the day of screening, various concentrations of compounds (from 0.5 nM to 500 nM) were added into DMEM medium. Two hours later, 20% of FBS (Fetal Bovine Serum) was added into the medium to stimulate the expression of phosphor-PDGFRβ. Cell lysate from approximately 5×10^5 transfected CHO cells were reacted with anti-phosphor-PDGFRβ or anti-total PDGFRβ antibody in 96 well plates, in the presence of detection antibody, the phosphor-PDGFRβ or total PDGFRβ were detected with Streptavidin-HRP (R&D Systems), followed by chemiluminescent detection.

T1 sequence (P08581 25-1390): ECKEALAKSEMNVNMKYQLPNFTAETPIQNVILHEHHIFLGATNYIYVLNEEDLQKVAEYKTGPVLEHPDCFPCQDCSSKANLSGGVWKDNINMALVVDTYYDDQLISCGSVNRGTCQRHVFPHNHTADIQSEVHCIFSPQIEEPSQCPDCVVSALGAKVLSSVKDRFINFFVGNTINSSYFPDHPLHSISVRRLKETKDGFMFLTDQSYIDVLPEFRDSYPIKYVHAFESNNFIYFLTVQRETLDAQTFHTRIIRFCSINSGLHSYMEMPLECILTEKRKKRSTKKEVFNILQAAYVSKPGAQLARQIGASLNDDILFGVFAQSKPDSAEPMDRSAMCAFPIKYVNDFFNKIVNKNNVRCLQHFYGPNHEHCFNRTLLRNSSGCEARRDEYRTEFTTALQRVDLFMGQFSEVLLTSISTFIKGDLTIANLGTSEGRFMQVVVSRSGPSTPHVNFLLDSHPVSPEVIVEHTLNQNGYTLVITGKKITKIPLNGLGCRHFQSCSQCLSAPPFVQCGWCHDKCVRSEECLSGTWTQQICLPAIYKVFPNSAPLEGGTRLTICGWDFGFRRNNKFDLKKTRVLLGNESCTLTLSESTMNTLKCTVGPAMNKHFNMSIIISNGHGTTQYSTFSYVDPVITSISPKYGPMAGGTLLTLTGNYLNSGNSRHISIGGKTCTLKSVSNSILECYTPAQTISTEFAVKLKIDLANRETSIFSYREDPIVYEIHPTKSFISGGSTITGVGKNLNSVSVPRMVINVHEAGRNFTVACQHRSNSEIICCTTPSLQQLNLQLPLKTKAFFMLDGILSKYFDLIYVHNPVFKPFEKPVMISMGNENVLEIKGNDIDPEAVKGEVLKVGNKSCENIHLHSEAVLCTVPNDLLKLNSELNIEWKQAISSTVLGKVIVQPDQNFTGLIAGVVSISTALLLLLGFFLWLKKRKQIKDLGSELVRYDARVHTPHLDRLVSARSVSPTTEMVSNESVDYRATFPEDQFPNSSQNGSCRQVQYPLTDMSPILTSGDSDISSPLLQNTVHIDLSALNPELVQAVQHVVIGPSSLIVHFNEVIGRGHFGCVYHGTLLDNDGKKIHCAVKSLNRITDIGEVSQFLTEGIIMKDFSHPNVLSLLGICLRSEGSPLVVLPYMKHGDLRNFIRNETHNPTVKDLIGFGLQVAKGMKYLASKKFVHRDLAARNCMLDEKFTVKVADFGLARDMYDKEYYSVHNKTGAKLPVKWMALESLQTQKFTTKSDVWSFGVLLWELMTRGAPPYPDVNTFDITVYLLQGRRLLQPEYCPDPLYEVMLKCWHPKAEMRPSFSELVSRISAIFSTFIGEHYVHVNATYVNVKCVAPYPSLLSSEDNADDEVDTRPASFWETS
T2 sequence (P35968 20-1356, species assumed): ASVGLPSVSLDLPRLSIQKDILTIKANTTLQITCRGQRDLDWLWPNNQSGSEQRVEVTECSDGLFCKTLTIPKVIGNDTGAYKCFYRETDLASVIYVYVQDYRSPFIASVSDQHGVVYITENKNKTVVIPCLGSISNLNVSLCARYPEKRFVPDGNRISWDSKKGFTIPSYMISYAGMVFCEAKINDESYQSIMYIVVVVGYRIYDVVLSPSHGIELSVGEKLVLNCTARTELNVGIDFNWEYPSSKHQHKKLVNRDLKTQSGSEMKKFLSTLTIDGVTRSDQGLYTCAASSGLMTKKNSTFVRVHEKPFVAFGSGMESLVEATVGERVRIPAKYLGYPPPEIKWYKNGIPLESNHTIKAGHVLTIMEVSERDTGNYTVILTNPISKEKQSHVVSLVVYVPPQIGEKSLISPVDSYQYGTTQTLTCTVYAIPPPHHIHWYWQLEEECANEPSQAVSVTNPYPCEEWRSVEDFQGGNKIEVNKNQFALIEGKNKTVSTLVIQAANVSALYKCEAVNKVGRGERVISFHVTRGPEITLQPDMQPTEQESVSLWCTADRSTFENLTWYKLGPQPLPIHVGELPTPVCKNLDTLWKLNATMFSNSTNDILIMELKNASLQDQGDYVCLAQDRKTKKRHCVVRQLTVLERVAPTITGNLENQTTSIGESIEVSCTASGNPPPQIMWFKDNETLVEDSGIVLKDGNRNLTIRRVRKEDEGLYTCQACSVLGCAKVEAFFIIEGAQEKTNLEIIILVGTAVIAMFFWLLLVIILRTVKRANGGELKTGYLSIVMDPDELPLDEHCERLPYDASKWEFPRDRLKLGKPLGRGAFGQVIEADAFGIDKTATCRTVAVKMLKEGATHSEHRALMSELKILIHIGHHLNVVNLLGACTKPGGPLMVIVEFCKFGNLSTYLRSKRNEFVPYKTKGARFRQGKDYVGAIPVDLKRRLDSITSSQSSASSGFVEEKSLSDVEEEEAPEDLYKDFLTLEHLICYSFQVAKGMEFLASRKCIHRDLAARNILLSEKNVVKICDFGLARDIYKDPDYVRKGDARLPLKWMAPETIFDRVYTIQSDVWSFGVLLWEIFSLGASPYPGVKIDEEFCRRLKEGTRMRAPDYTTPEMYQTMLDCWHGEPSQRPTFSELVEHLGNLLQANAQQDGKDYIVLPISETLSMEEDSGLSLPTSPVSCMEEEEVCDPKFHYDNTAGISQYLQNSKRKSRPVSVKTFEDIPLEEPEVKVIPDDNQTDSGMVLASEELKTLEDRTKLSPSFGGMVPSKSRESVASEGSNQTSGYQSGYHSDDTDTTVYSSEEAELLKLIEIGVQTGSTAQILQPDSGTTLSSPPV
T3 sequence (P07333 20-972): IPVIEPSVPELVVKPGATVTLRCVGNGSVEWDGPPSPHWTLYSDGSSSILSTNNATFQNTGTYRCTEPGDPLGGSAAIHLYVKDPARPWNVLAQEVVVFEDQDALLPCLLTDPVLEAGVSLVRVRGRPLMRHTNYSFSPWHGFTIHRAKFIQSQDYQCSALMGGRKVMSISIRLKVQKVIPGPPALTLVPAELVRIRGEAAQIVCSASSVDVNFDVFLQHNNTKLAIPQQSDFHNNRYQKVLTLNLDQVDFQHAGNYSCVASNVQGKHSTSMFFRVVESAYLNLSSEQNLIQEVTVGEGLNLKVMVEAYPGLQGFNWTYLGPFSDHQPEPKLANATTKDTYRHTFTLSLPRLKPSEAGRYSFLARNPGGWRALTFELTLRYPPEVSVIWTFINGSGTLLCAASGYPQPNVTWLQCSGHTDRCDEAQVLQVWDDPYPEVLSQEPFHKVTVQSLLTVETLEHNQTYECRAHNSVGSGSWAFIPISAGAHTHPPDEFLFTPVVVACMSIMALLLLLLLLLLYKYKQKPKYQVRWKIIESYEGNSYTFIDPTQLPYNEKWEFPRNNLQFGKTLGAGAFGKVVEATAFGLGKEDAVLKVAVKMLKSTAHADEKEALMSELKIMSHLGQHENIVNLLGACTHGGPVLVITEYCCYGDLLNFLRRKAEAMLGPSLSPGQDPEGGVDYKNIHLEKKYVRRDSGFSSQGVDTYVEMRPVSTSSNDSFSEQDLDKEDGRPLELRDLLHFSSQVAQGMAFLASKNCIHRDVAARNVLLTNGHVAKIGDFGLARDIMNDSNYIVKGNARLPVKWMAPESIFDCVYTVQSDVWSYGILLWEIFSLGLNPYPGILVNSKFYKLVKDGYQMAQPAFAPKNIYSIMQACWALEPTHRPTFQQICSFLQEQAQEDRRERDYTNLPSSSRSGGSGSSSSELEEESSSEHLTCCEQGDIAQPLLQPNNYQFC
T4 sequence (P10721 26-976): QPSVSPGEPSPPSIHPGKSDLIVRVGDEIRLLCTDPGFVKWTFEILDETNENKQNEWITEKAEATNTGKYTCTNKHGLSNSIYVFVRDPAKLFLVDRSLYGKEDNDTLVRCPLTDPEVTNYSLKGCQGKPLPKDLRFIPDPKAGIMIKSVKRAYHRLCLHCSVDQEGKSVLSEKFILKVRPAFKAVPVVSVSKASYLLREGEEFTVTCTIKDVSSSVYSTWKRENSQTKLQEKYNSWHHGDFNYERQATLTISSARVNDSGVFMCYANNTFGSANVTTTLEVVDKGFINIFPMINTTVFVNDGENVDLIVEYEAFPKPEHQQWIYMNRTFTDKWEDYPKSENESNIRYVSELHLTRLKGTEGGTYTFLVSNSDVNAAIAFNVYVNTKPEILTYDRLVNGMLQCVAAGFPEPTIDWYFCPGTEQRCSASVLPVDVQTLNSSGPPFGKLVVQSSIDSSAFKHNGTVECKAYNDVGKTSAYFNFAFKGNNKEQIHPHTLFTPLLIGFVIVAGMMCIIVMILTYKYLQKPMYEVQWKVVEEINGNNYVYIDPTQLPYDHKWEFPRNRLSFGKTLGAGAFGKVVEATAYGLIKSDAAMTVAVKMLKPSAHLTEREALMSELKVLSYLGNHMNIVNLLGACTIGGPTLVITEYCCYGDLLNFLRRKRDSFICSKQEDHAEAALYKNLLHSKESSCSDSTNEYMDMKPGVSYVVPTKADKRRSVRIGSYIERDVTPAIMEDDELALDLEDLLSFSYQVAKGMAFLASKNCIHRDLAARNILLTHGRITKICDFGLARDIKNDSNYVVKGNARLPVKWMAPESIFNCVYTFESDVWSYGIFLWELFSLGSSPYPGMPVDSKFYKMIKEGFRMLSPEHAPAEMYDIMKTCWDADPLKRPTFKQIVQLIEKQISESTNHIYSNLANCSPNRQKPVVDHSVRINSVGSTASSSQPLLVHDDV

SMILES	% c-Met kinase activity remains [1]	remaining activity at 0.1 µM [2]	CSF-1R % Ctrl [3]	c-Kit % Ctrl [4]	Tumor Growth Inhibition (TGI) [5]	Tumor Growth Inhibition (TGI) [6]	Tumor Growth Inhibition (TGI) ([7]; 50 mg/kg oral once per day)	EPHA2 % Ctrl [8]	Tumor Growth Inhibition (TGI) ([9]; 50 mg/kg oral once per day)	Tumor Growth Inhibition (TGI) [10]	Tumor Growth Inhibition (TGI) ([7]; 100 mg/kg oral once per day)	Tumor Growth Inhibition (TGI) ([9]; 100 mg/kg oral once per day)	Tumor Growth Inhibition (TGI) [11]	Tumor Growth Inhibition (TGI) [12]	remaining activity at 0.1 µM [13]
Cc1cccc(NC(=O)Nc2cccc3c2ccn3Cc2ccnc3[nH]ccc23)c1.Cl [Example 44, 1-(3-Methylphenyl)-3-[1-(1H-pyrrolo[2,3-b]pyridin-4-ylmethyl)-1H-indol-4-yl]urea hydrochloride]	A (the percentage of kinase activity remains is below 70%)	< 70%	0.8 % Ctrl	0.35 % Ctrl	A (the TGI is greater or equal to 50%)	A (the TGI is greater or equal to 50%)	A (the TGI is greater or equal to 50%)	6 % Ctrl	A (the TGI is greater or equal to 50%)	–	–	–	–	–	–
COc1ccc(Cl)cc1NC(=O)Nc1cccc2c1ccn2Cc1ccnc2[nH]ccc12.Cl [Example 2a/2b, 1-(2-Methoxyl-5-chlorophenyl)-3-[1-(1H-pyrrolo[2,3-b]pyridin-4-ylmethyl)-1H-indol-4-yl]urea hydrochloride]	A (the percentage of kinase activity remains is below 70%)	< 70%	–	–	A (the TGI is greater or equal to 50%)	A (the TGI is greater or equal to 50%)	–	–	–	A (the TGI is greater or equal to 50%)	A (the TGI is greater or equal to 50%)	A (the TGI is greater or equal to 50%)	–	–	–
O=C(Nc1cccc(Cl)c1)Nc1cccc2c1ccn2Cc1ccnc2[nH]ccc12 [Example 38, 1-(3-Chlorophenyl)-3-[1-(1H-pyrrolo[2,3-b]pyridin-4-ylmethyl)-1H-indol-4-yl]urea hydrochloride]	A (the percentage of kinase activity remains is below 70%)	< 70%	–	–	–	A (the TGI is greater or equal to 50%)	–	–	–	–	–	–	A (the TGI is greater or equal to 50%)	–	–
COc1ccc(Cl)cc1NC(=O)Nc1cccc2c1ccn2Cc1c[nH]c2ncccc12.Cl [Example 3, 1-(2-Methoxyl-5-chlorophenyl)-3-[1-(1H-pyrrolo[2,3-b]pyridin-3-ylmethyl)-1H-indol-4-yl]urea hydrochloride]	A (the percentage of kinase activity remains is below 70%)	< 70%	–	–	–	A (the TGI is greater or equal to 50%)	–	–	–	–	–	A (the TGI is greater or equal to 50%)	–	A (the TGI is greater or equal to 50%)	≥ 70%
